pIC50: −log10 of the molar value.
Target: SMYD3 (Homo sapiens (Human), UniProt Q9H7B4)
Experiment: SMYD3 biochemical assay (SMYD3 enzyme assay on MEKK2 protein substrate, 3H-SAM scintillation proximity assay)
Settings: read-out: SMYD3 Biochem IC50
Summary of the method: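 Native full-length human SMYD3, expressed in E. coli, was preincubated with compound for 30 min at room temperature in 25 mM Tris-Cl pH 8.0, 1 mM TCEP, 0.005% BSG and 0.005% Tween 20. ³H-SAM plus GST-MEKK2 then started the reaction. It was stopped with unlabeled SAM (100 uM final), and methylated MEKK2 was read by SPA.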

Sequence of SMYD3 (Q9H7B4 whole entry): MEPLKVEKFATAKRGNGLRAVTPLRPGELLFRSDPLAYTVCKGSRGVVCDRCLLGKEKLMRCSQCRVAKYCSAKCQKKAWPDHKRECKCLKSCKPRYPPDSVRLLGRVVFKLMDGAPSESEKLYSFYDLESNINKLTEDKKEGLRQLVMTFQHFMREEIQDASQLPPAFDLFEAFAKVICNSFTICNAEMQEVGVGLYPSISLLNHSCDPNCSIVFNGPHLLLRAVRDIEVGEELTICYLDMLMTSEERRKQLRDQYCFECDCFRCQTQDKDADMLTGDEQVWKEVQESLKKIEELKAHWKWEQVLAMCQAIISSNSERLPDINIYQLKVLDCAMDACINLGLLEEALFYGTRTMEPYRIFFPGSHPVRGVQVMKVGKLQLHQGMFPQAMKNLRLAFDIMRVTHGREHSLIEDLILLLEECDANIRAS

Point of comparison: `NCCC(=O)N[C@H]1CC[C@H](NC(=O)c2n[nH]c3ccccc23)CC1` [compound 425, N-((1r,4r)-4-(3-aminopropanamido)cyclohexyl)-1H-indazole-3-carboxamide], pIC50 4.43. Against it:
- N[C@H]1CC[C@H](NC(=O)c2cccc3c2CC(=O)N3)CC1 [compound 400, N-((1r,4r)-4-aminocyclohexyl)-2-oxoindoline-4-carboxamide] — lower, < 4.00
- Cc1c(C(=O)N[C@H]2CC[C@H](NC(=O)CCN)CC2)nnn1-c1ccccc1 [compound 401, N-((1r,4r)-4-(3-aminopropanamido)cyclohexyl)-5-methyl-1-phenyl-1H-1,2,3-triazole-4-carboxamide] — lower, < 4.00
- Cc1cc(C)c(C(=O)N[C@H]2CC[C@H](NC(=O)CCN)CC2)c(=O)[nH]1 [compound 402, N-((1r,4r)-4-(3-aminopropanamido)cyclohexyl)-4,6-dimethyl-2-oxo-1,2-dihydropyridine-3-carboxamide] — lower, < 4.00
- CC1=NN(c2ccc(C(=O)N[C@H]3CC[C@H](N)CC3)cc2)C(=O)C1 [compound 403, N-((1r,4r)-4-aminocyclohexyl)-4-(3-methyl-5-oxo-4,5-dihydro-1H-pyrazol-1-yl)benzamide] — lower, < 4.00
- NCCC(=O)N[C@H]1CC[C@H](NC(=O)c2cc(O)c3ccccc3n2)CC1 [compound 404, N-((1r,4r)-4-(3-aminopropanamido)cyclohexyl)-4-hydroxyquinoline-2-carboxamide] — lower, < 4.00
- N[C@H]1CC[C@H](NC(=O)c2cnc3ccccc3n2)CC1 [compound 405, N-((1r,4r)-4-aminocyclohexyl)quinoxaline-2-carboxamide] — lower, < 4.00
- CC(NC(=O)Cc1c[nH]c2cccnc12)C1CCN(C(=O)[C@H](C)N)CC1 (stereo partly drawn) [compound 406, N-(1-(1-(L-alanyl)piperidin-4-yl)ethyl)-2-(1H-pyrrolo[3,2-b]pyridin-3-yl)acetamide] — lower, < 4.00
- NCCC(=O)N[C@H]1CC[C@H](NC(=O)Cc2c[nH]c3cccnc23)CC1 [compound 407, N-((1r,4r)-4-(2-(1H-pyrrolo[3,2-b]pyridin-3-yl)acetamido)cyclohexyl)-3-aminopropanamide] — lower, < 4.00
- N[C@H]1CC[C@H](NC(=O)Cc2c[nH]c3cccnc23)CC1 [compound 408, N-((1r,4r)-4-aminocyclohexyl)-2-(1H-pyrrolo[3,2-b]pyridin-3-yl)acetamide] — lower, < 4.00
- CC(NC(=O)c1cccnc1O)C1CCN(C(=O)[C@H](C)N)CC1 (stereo partly drawn) [compound 409, N-(1-(1-(L-alanyl)piperidin-4-yl)ethyl)-2-hydroxynicotinamide] — 0.28 log units lower, 4.15
- NCCC(=O)N[C@H]1CC[C@H](NC(=O)c2cccnc2O)CC1 [compound 410, N-((1r,4r)-4-(3-aminopropanamido)cyclohexyl)-2-hydroxynicotinamide] — within 0.2 log units, 4.35
- N[C@H]1CC[C@H](NC(=O)c2cccnc2O)CC1 [compound 411, N-((1r,4r)-4-aminocyclohexyl)-2-hydroxynicotinamide] — lower, < 4.00
- Cn1ccnc1C(=O)N[C@H]1CC[C@H](NC(=O)CCN)CC1 [compound 412, N-((1r,4r)-4-(3-aminopropanamido)cyclohexyl)-1-methyl-1H-imidazole-2-carboxamide] — lower, < 4.00
- CC(NC(=O)c1ccnn1C)C1CCN(C(=O)[C@H](C)N)CC1 (stereo partly drawn) [compound 413, N-(l-(1-(L-alanyl)piperidin-4-yl)ethyl)-1-methyl-1H-pyrazole-5-carboxamide] — lower, < 4.00
- Cn1nccc1C(=O)N[C@H]1CC[C@H](NC(=O)CCN)CC1 [compound 414, N-((1r,4r)-4-(3-aminopropanamido)cyclohexyl)-1-methyl-1H-pyrazole-5-carboxamide] — lower, < 4.00
- Cn1nccc1C(=O)N[C@H]1CC[C@H](N)CC1 [compound 415, N-((1r,4r)-4-aminocyclohexyl)-1-methyl-1H-pyrazole-5-carboxamide] — lower, < 4.00
- NCCC(=O)N[C@H]1CC[C@H](NC(=O)C2C[C@@H]3C=C[C@H]2C3)CC1 (stereo partly drawn) [compound 416, (1R,4R)-N-((1r,4R)-4-(3-aminopropanamido)cyclohexyl)bicyclo[2.2.1]hept-5-ene-2-carboxamide] — lower, < 4.00
- N[C@H]1CC[C@H](NC(=O)C2C[C@@H]3C=C[C@H]2C3)CC1 (stereo partly drawn) [compound 417, (1r,4r)-N-((1r,4R)-4-aminocyclohexyl)bicyclo[2.2.1]hept-5-ene-2-carboxamide] — lower, < 4.00
- CC(NC(=O)c1cccc(N)n1)C1CCN(C(=O)[C@H](C)N)CC1 (stereo partly drawn) [compound 418, N-(1-(1-(L-alanyl)piperidin-4-yl)ethyl)-6-aminopicolinamide] — lower, < 4.00
- CC(NC(=O)c1cncnc1N)C1CCN(C(=O)[C@H](C)N)CC1 (stereo partly drawn) [compound 419, N-(1-(1-(L-alanyl)piperidin-4-yl)ethyl)-4-aminopyrimidine-5-carboxamide] — lower, < 4.00
- NCCC(=O)N[C@H]1CC[C@H](NC(=O)c2cncnc2N)CC1 [compound 420, 4-amino-N-((1r,4r)-4-(3-aminopropanamido)cyclohexyl)pyrimidine-5-carboxamide] — lower, < 4.00
- Nc1ncncc1C(=O)N[C@H]1CC[C@H](N)CC1 [compound 421, 4-amino-N-((1r,4r)-4-aminocyclohexyl)pyrimidine-5-carboxamide] — lower, < 4.00
- NCCC(=O)N[C@H]1CC[C@H](NC(=O)c2cccc(F)n2)CC1 [compound 422, N-((1r,4r)-4-(3-aminopropanamido)cyclohexyl)-6-fluoropicolinamide] — lower, < 4.00
- N[C@H]1CC[C@H](NC(=O)c2ccc(O)cn2)CC1 [compound 423, N-((1r,4r)-4-aminocyclohexyl)-5-hydroxypicolinamide] — lower, < 4.00
- N[C@H]1CC[C@H](NC(=O)C2=NNC(=O)CC2)CC1 [compound 424, N-((1r,4r)-4-aminocyclohexyl)-6-oxo-1,4,5,6-tetrahydropyridazine-3-carboxamide] — lower, < 4.00
- N[C@H]1CC[C@H](NC(=O)Cn2ccnc2)CC1 [compound 426, N-((1r,4r)-4-aminocyclohexyl)-2-(1H-imidazol-1-yl)acetamide] — lower, < 4.00
- NCCC(=O)N[C@H]1CC[C@H](NC(=O)c2nc3ccccc3s2)CC1 [compound 427, N-((1r,4r)-4-(3-aminopropanamido)cyclohexyl)benzo[d]thiazole-2-carboxamide] — lower, < 4.00
- N[C@H]1CC[C@H](C(=O)Nc2ccc3c(c2)CC(=O)N3)CC1 [compound 428, (1r,4r)-4-amino-N-(2-oxoindolin-5-yl)cyclohexane-1-carboxamide] — within 0.2 log units, 4.51
- N[C@H]1CC[C@H](NS(=O)(=O)c2ccc3c(c2)CC(=O)N3)CC1 [compound 429, N-((1r,4r)-4-aminocyclohexyl)-2-oxoindoline-5-sulfonamide] — 0.41 log units higher, 4.84
- NCCC(=O)N[C@H]1CC[C@H](NC(=O)c2cccc3c2CC(=O)N3)CC1 [compound 430, N-((1r,4r)-4-(3-aminopropanamido)cyclohexyl)-2-oxoindoline-4-carboxamide] — lower, < 4.00
- Cc1nn(C(C)C(=O)N[C@H]2CC[C@H](NC(=O)CCN)CC2)c(C)c1Br (some centres unmarked) [compound 431, 3-amino-N-((1r,4r)-4-(2-(4-bromo-3,5-dimethyl-1H-pyrazol-1-yl)propanamido)cyclohexyl)propanamide] — lower, < 4.00
